Laboratory results from ChEMBL document CHEMBL1201862, “PubChem BioAssay data set” (2004).
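Grown in 96-well plates, cells were treated for 48 hours with each compound at five concentrations. Insufficient inhibition: endpoint recorded as highest concentration tested. At the GI50, growth is halved.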 Active and inactive are the calls of the source. No stated cut-off is given here; in the data, active = GI50 up to about 1.1 µM and inactive = higher.

How the values were obtained:
Assay in all cases: NCI anticancer screen, dose series, 48 h
786-0 = tested on: 786-0
A498 = tested on: A498
A549 = tested on: A549
ACHN = tested on: ACHN
CAKI-1 = tested on: CAKI-1
CCRF-CEM = tested on: CCRF-CEM
COLO 205 = tested on: COLO 205
DLD-1 = tested on: DLD-1
DMS-114 = tested on: DMS-114
EKVX = tested on: EKVX
HCT-116 = tested on: HCT-116
HL-60 = tested on: HL-60
HOP-18 = tested on: HOP-18
HOP-62 = tested on: HOP-62
HOP-92 = tested on: HOP-92
HT-29 = tested on: HT-29
IGROV-1 = tested on: IGROV-1
K562 = tested on: K562
KM-20L2 = tested on: KM-20L2
KM12 = tested on: KM12
LOX IMVI = tested on: LOX IMVI
LXFL 529 = tested on: LXFL 529
M14 = tested on: M14
M19-MEL = tested on: M19-MEL
MOLT-4 = tested on: MOLT-4
Malme-3M = tested on: Malme-3M
NCI-H226 = tested on: NCI-H226
NCI-H23 = tested on: NCI-H23
NCI-H460 = tested on: NCI-H460
NCI-H522 = tested on: NCI-H522
OVCAR-3 = tested on: OVCAR-3
OVCAR-4 = tested on: OVCAR-4
OVCAR-8 = tested on: OVCAR-8
RPMI-8226 = tested on: RPMI-8226
RXF 393 = tested on: RXF 393
RXF 631 = tested on: RXF 631
SF-268 = tested on: SF-268
SF-295 = tested on: SF-295
SF-539 = tested on: SF-539
SK-MEL-28 = tested on: SK-MEL-28
SK-MEL-5 = tested on: SK-MEL-5
SK-OV-3 = tested on: SK-OV-3
SN12C = tested on: SN12C
SNB-19 = tested on: SNB-19
SNB-75 = tested on: SNB-75
SNB-78 = tested on: SNB-78
SR = tested on: SR
SW-620 = tested on: SW-620
TK-10 = tested on: TK-10
U-251 = tested on: U-251
UACC-257 = tested on: UACC-257
UACC-62 = tested on: UACC-62
UO-31 = tested on: UO-31
XF498 = tested on: XF498
DMS-273 = tested on: DMS-273
HCC 2998 = tested on: HCC 2998
HCT-15 = tested on: HCT-15
OVCAR-5 = tested on: OVCAR-5
SK-MEL-2 = tested on: SK-MEL-2

## C=C=C(CC)C(C(=O)OC)N(CC)CC (stereo not drawn)
786-0
  GI50: > 100 µM (inactive)
A498
  GI50: > 100 µM (inactive)
A549
  GI50: > 100 µM (inactive)
ACHN
  GI50: > 100 µM (inactive)
CAKI-1
  GI50: > 100 µM (inactive)
CCRF-CEM
  GI50: > 100 µM (inactive)
COLO 205
  GI50: > 100 µM (inactive)
DLD-1
  GI50: > 100 µM (inactive)
DMS-114
  GI50: > 100 µM (inactive)
EKVX
  GI50: > 100 µM (inactive)
HCT-116
  GI50: > 100 µM (inactive)
HL-60
  GI50: > 100 µM (inactive)
HOP-18
  GI50: > 100 µM (inactive)
HOP-62
  GI50: > 100 µM (inactive)
HOP-92
  GI50: > 100 µM (inactive)
HT-29
  GI50: > 100 µM (inactive)
IGROV-1
  GI50: > 100 µM (inactive)
K562
  GI50: > 100 µM (inactive)
KM-20L2
  GI50: > 100 µM (inactive)
KM12
  GI50: > 100 µM (inactive)
LOX IMVI
  GI50: > 100 µM (inactive)
LXFL 529
  GI50: > 100 µM (inactive)
M14
  GI50: > 100 µM (inactive)
M19-MEL
  GI50: > 100 µM (inactive)
MOLT-4
  GI50: > 100 µM (inactive)
Malme-3M
  GI50: > 100 µM (inactive)
NCI-H226
  GI50: > 100 µM (inactive)
NCI-H23
  GI50: > 100 µM (inactive)
NCI-H460
  GI50: > 100 µM (inactive)
NCI-H522
  GI50: > 100 µM (inactive)
OVCAR-3
  GI50: > 100 µM (inactive)
OVCAR-4
  GI50: > 100 µM (inactive)
OVCAR-8
  GI50: > 100 µM (inactive)
RPMI-8226
  GI50: > 100 µM (inactive)
RXF 393
  GI50: > 100 µM (inactive)
RXF 631
  GI50: > 100 µM (inactive)
SF-268
  GI50: > 100 µM (inactive)
SF-295
  GI50: > 100 µM (inactive)
SF-539
  GI50: > 100 µM (inactive)
SK-MEL-28
  GI50: > 100 µM (inactive)
SK-MEL-5
  GI50: > 100 µM (inactive)
SK-OV-3
  GI50: > 100 µM (inactive)
SN12C
  GI50: > 100 µM (inactive)
SNB-19
  GI50: > 100 µM (inactive)
SNB-75
  GI50: > 100 µM (inactive)
SNB-78
  GI50: > 100 µM (inactive)
SR
  GI50: > 100 µM (inactive)
SW-620
  GI50: > 100 µM (inactive)
TK-10
  GI50: > 100 µM (inactive)
U-251
  GI50: > 100 µM (inactive)
UACC-257
  GI50: > 100 µM (inactive)
UACC-62
  GI50: > 100 µM (inactive)
UO-31
  GI50: > 100 µM (inactive)
XF498
  GI50: > 100 µM (inactive)

## O=C1[C@@H]2C(c3ccccc3F)=NO[C@@H]2C(=O)N1c1ccc(Cc2ccc(N3C(=O)[C@H]4C(c5ccccc5F)=NO[C@H]4C3=O)cc2)cc1
786-0
  GI50: > 100 µM (inactive)
A498
  GI50: > 100 µM (inactive)
A549
  GI50: > 100 µM (inactive)
ACHN
  GI50: > 100 µM (inactive)
CAKI-1
  GI50: > 100 µM (inactive)
CCRF-CEM
  GI50: 16 µM (inactive)
COLO 205
  GI50: > 100 µM (inactive)
DLD-1
  GI50: > 100 µM (inactive)
DMS-114
  GI50: > 100 µM (inactive)
DMS-273
  GI50: > 100 µM (inactive)
EKVX
  GI50: > 100 µM (inactive)
HCC 2998
  GI50: > 100 µM (inactive)
HCT-116
  GI50: > 100 µM (inactive)
HCT-15
  GI50: > 100 µM
HL-60
  GI50: 14.4 µM (inactive)
HOP-18
  GI50: > 100 µM (inactive)
HOP-62
  GI50: > 100 µM (inactive)
HOP-92
  GI50: 34.4 µM (inactive)
HT-29
  GI50: > 100 µM (inactive)
IGROV-1
  GI50: > 100 µM (inactive)
K562
  GI50: > 55.1 µM (inactive)
KM-20L2
  GI50: > 100 µM (inactive)
KM12
  GI50: > 100 µM (inactive)
LOX IMVI
  GI50: > 100 µM (inactive)
LXFL 529
  GI50: > 100 µM (inactive)
M14
  GI50: > 100 µM (inactive)
M19-MEL
  GI50: > 100 µM (inactive)
MOLT-4
  GI50: 19.6 µM (inactive)
Malme-3M
  GI50: > 100 µM (inactive)
NCI-H226
  GI50: > 100 µM (inactive)
NCI-H23
  GI50: > 100 µM (inactive)
NCI-H460
  GI50: > 100 µM (inactive)
NCI-H522
  GI50: > 100 µM (inactive)
OVCAR-3
  GI50: > 100 µM (inactive)
OVCAR-4
  GI50: > 100 µM (inactive)
OVCAR-5
  GI50: > 100 µM (inactive)
OVCAR-8
  GI50: > 100 µM (inactive)
RPMI-8226
  GI50: 29.4 µM (inactive)
RXF 393
  GI50: > 43.7 µM (inactive)
RXF 631
  GI50: > 100 µM (inactive)
SF-268
  GI50: > 100 µM (inactive)
SF-295
  GI50: > 100 µM (inactive)
SF-539
  GI50: > 100 µM (inactive)
SK-MEL-28
  GI50: > 100 µM (inactive)
SK-MEL-2
  GI50: > 100 µM (inactive)
SK-MEL-5
  GI50: > 100 µM (inactive)
SK-OV-3
  GI50: > 100 µM (inactive)
SN12C
  GI50: > 100 µM (inactive)
SNB-19
  GI50: > 100 µM (inactive)
SNB-75
  GI50: > 100 µM (inactive)
SNB-78
  GI50: > 100 µM (inactive)
SR
  GI50: 34.1 µM (inactive)
SW-620
  GI50: > 75.7 µM (inactive)
TK-10
  GI50: > 31.6 µM (inactive)
U-251
  GI50: > 100 µM (inactive)
UACC-257
  GI50: > 100 µM (inactive)
UACC-62
  GI50: > 100 µM (inactive)
UO-31
  GI50: > 100 µM (inactive)
XF498
  GI50: > 87.3 µM (inactive)
